Experimental data published in the OligoGym collection.
Oligonucleotides are written 5' to 3', each unit as a sugar letter and its base; * is a phosphorothioate linkage, no mark a phosphodiester; rarer units and linkages stand in square brackets, end groups in braces. Plain capitals give the bases only. d = 2'-deoxy (DNA); r = 2'-OH (RNA)

target: MRFAP1; test: reporter assay of Huesken 2005; settings: siRNA
Note: test concentration or dose not given here.

In order of falling normalised inhibition (eCFP-eYFP dual reporter):
1. sense rGrCrUrGrArArArCrCrArGrArGrArGrCrCrUrUdTdT / antisense rArArGrGrCrUrCrUrCrUrGrGrUrUrUrCrArGrCdTdT  102%
2. sense rCrArUrArUrGrUrArGrUrCrArArGrCrUrArUrAdTdT / antisense rUrArUrArGrCrUrUrGrArCrUrArCrArUrArUrGdAdA  101%
3. sense rCrUrGrArCrArCrUrArCrGrUrUrUrCrUrGrCrUdTdT / antisense rArGrCrArGrArArArCrGrUrArGrUrGrUrCrArGdTdG  99.3%
4. sense rCrArArArGrGrArGrGrArGrArGrArUrGrUrArUdTdT / antisense rArUrArCrArUrCrUrCrUrCrCrUrCrCrUrUrUrGdGdT  99.2%
5. sense rCrGrGrCrGrGrArArGrUrUrUrUrGrArArGrArCdTdT / antisense rGrUrCrUrUrCrArArArArCrUrUrCrCrGrCrCrGdCdT  94.8%
6. sense rGrGrUrGrCrArGrCrUrCrGrUrGrCrGrGrCrGrGdTdT / antisense rCrCrGrCrCrGrCrArCrGrArGrCrUrGrCrArCrCdAdG  88.4%
7. sense rCrCrCrCrUrCrUrGrUrCrUrUrCrArCrUrCrUrGdTdT / antisense rCrArGrArGrUrGrArArGrArCrArGrArGrGrGrGdAdA  87.5%
8. sense rUrCrGrUrGrCrGrGrCrGrGrArUrArGrArGrArAdTdT / antisense rUrUrCrUrCrUrArUrCrCrGrCrCrGrCrArCrGrAdGdC  87.2%
9. sense rGrGrArArArArUrGrCrGrCrUrCrArCrArUrArCdTdT / antisense rGrUrArUrGrUrGrArGrCrGrCrArUrUrUrUrCrCdAdA  86.7%
10. sense rCrCrUrGrCrArArUrGrGrArCrCrCrArArArArCdTdT / antisense rGrUrUrUrUrGrGrGrUrCrCrArUrUrGrCrArGrGdTdT  86.2%
11. sense rGrArArArCrCrArGrArGrArGrCrCrUrUrUrGrUdTdT / antisense rArCrArArArGrGrCrUrCrUrCrUrGrGrUrUrUrCdAdG  86%
12. sense rArGrUrGrArUrGrGrCrGrArUrUrGrGrCrUrGrAdTdT / antisense rUrCrArGrCrCrArArUrCrGrCrCrArUrCrArCrUdCdA  85.8%
13. sense rArGrGrUrCrArArArArCrCrCrUrUrArCrCrArUdTdT / antisense rArUrGrGrUrArArGrGrGrUrUrUrUrGrArCrCrUdCdA  85.7%
14. sense rUrGrUrUrGrGrGrArCrArGrCrCrUrArArCrUrCdTdT / antisense rGrArGrUrUrArGrGrCrUrGrUrCrCrCrArArCrAdAdA  85.6%
15. sense rCrUrGrUrGrGrGrArGrArUrGrGrArCrArArUrAdTdT / antisense rUrArUrUrGrUrCrCrArUrCrUrCrCrCrArCrArGdCdT  82.9%
16. sense rUrUrUrGrArGrGrUrCrArArArArCrCrCrUrUrAdTdT / antisense rUrArArGrGrGrUrUrUrUrGrArCrCrUrCrArArAdTdG  82.6%
17. sense rGrArCrUrUrCrArUrCrUrGrGrGrArCrUrGrUrGdTdT / antisense rCrArCrArGrUrCrCrCrArGrArUrGrArArGrUrCdTdG  82.4%
18. sense rCrUrGrArGrArCrUrUrGrGrArGrUrUrGrGrArGdTdT / antisense rCrUrCrCrArArCrUrCrCrArArGrUrCrUrCrArGdTdG  81.5%
19. sense rArGrCrUrCrGrUrGrCrGrGrCrGrGrArUrArGrAdTdT / antisense rUrCrUrArUrCrCrGrCrCrGrCrArCrGrArGrCrUdGdC  79.7%
20. sense rGrArGrArArGrGrArArArArCrCrUrGrCrArArUdTdT / antisense rArUrUrGrCrArGrGrUrUrUrUrCrCrUrUrCrUrCdAdG  79.1%
21. sense rArUrGrGrCrGrArArGrArUrGrGrCrCrGrArGrAdTdT / antisense rUrCrUrCrGrGrCrCrArUrCrUrUrCrGrCrCrArUdCdT  78.7%
22. sense rArCrCrUrGrGrGrArGrArArGrGrGrUrCrGrGrAdTdT / antisense rUrCrCrGrArCrCrCrUrUrCrUrCrCrCrArGrGrUdCdA  77.6%
23. sense rArArArArUrCrUrUrArCrArUrGrUrUrArArUrAdTdT / antisense rUrArUrUrArArCrArUrGrUrArArGrArUrUrUrUdGdT  76.5%
24. sense rCrUrUrGrCrArArUrArCrCrCrUrUrUrGrUrGrUdTdT / antisense rArCrArCrArArArGrGrGrUrArUrUrGrCrArArGdGdA  74.1%
25. sense rUrGrCrArGrCrArArUrGrGrCrArGrArArGrArAdTdT / antisense rUrUrCrUrUrCrUrGrCrCrArUrUrGrCrUrGrCrAdTdG  72.9%
26. sense rGrArGrGrUrCrUrUrGrUrUrCrGrUrCrUrGrUrAdTdT / antisense rUrArCrArGrArCrGrArArCrArArGrArCrCrUrCdAdT  72.7%
27. sense rGrArUrCrArArGrArCrGrCrArGrGrUrArGrArGdTdT / antisense rCrUrCrUrArCrCrUrGrCrGrUrCrUrUrGrArUrCdTdG  72%
28. sense rCrArArArArCrCrCrUrUrArCrCrArUrGrUrUrGdTdT / antisense rCrArArCrArUrGrGrUrArArGrGrGrUrUrUrUrGdAdC  70.3%
29. sense rArGrArGrGrCrCrUrCrUrGrArGrGrArGrArGrCdTdT / antisense rGrCrUrCrUrCrCrUrCrArGrArGrGrCrCrUrCrUdAdC  69.3%
30. sense rUrUrGrArUrUrUrGrGrArArArArUrGrCrGrCrUdTdT / antisense rArGrCrGrCrArUrUrUrUrCrCrArArArUrCrArAdAdG  68.1%
31. sense rCrArCrCrCrUrGrGrArGrArArGrCrUrGrArArAdTdT / antisense rUrUrUrCrArGrCrUrUrCrUrCrCrArGrGrGrUrGdTdC  66.7%
32. sense rArUrCrCrUrUrGrCrArArUrArCrCrCrUrUrUrGdTdT / antisense rCrArArArGrGrGrUrArUrUrGrCrArArGrGrArUdCdT  66.3%
33. sense rGrArCrGrCrArGrUrGrGrArGrCrUrGrGrCrGrGdTdT / antisense rCrCrGrCrCrArGrCrUrCrCrArCrUrGrCrGrUrCdCdA  65.5%
34. sense rGrGrArCrArGrCrCrUrArArCrUrCrArUrUrUrUdTdT / antisense rArArArArUrGrArGrUrUrArGrGrCrUrGrUrCrCdCdA  62.8%
35. sense rUrArCrGrUrUrUrCrUrGrCrUrArUrGrGrUrCrUdTdT / antisense rArGrArCrCrArUrArGrCrArGrArArArCrGrUrAdGdT  62.7%
36. sense rUrArCrArCrGrGrCrUrArGrGrArCrUrGrArUrGdTdT / antisense rCrArUrCrArGrUrCrCrUrArGrCrCrGrUrGrUrAdAdG  61.8%
37. sense rGrCrGrCrCrCrGrUrGrCrGrCrArArCrCrGrGrGdTdT / antisense rCrCrCrGrGrUrUrGrCrGrCrArCrGrGrGrCrGrCdGdC  55.3%
38. sense rUrCrGrGrArGrGrArUrUrGrUrArUrUrGrUrUrUdTdT / antisense rArArArCrArArUrArCrArArUrCrCrUrCrCrGrAdCdC  54.7%
39. sense rCrUrUrGrUrUrCrGrUrCrUrGrUrArCrArArGrUdTdT / antisense rArCrUrUrGrUrArCrArGrArCrGrArArCrArArGdAdC  54.3%
40. sense rArCrUrUrCrGrArGrCrArGrUrUrUrCrUrGrCrUdTdT / antisense rArGrCrArGrArArArCrUrGrCrUrCrGrArArGrUdCdC  51.4%
41. sense rArArCrUrUrUrGrArUrUrUrGrGrArArArArUrGdTdT / antisense rCrArUrUrUrUrCrCrArArArUrCrArArArGrUrUdAdT  50.3%
42. sense rUrUrUrGrGrArArArArUrGrCrGrCrUrCrArCrAdTdT / antisense rUrGrUrGrArGrCrGrCrArUrUrUrUrCrCrArArAdTdC  47.6%
43. sense rUrCrUrUrGrGrGrUrGrArCrCrUrGrArUrArGrCdTdT / antisense rGrCrUrArUrCrArGrGrUrCrArCrCrCrArArGrAdAdA  45.6%
44. sense rUrCrArCrCrGrCrCrUrCrUrGrArArArGrUrUrCdTdT / antisense rGrArArCrUrUrUrCrArGrArGrGrCrGrGrUrGrAdGdC  45.5%
45. sense rArArGrCrArGrCrGrGrArGrArUrGrCrGrGrCrCdTdT / antisense rGrGrCrCrGrCrArUrCrUrCrCrGrCrUrGrCrUrUdTdG  42.8%
46. sense rUrUrGrGrArArArArUrGrCrGrCrUrCrArCrArUdTdT / antisense rArUrGrUrGrArGrCrGrCrArUrUrUrUrCrCrArAdAdT  38.7%
47. sense rArArArGrCrArGrCrGrGrArGrArUrGrCrGrGrCdTdT / antisense rGrCrCrGrCrArUrCrUrCrCrGrCrUrGrCrUrUrUdGdC  35.6%
48. sense rUrCrUrUrCrGrUrGrArGrCrCrGrUrCrCrGrCrGdTdT / antisense rCrGrCrGrGrArCrGrGrCrUrCrArCrGrArArGrAdCdT  35.4%
49. sense rArArGrArUrGrGrCrCrGrArGrArUrGrCrUrGrGdTdT / antisense rCrCrArGrCrArUrCrUrCrGrGrCrCrArUrCrUrUdCdG  33.1%
50. sense rGrArGrArUrGrCrUrGrGrUrGrCrArGrCrUrCrGdTdT / antisense rCrGrArGrCrUrGrCrArCrCrArGrCrArUrCrUrCdGdG  32.2%
51. sense rArGrGrGrCrGrGrArGrArArGrGrCrCrGrArCrGdTdT / antisense rCrGrUrCrGrGrCrCrUrUrCrUrCrCrGrCrCrCrUdGdG  23.9%
52. sense rUrCrGrCrUrGrArCrGrCrGrCrGrArGrCrGrCrGdTdT / antisense rCrGrCrGrCrUrCrGrCrGrCrGrUrCrArGrCrGrAdCdG  14%
